Results: ChEMBL document CHEMBL4354794, “Potential Anticancer Agents Characterized from Selected Tropical Plants” (J Nat Prod, 2019)
pIC50: −log10 of the molar value. ≈ marks a conversion by molar mass, not a printed value.

Experiments:
[1] = tested on: HT-29; test: Antiproliferative activity against human HT-29 cells assessed as reduction in cell viability; format: functional, cell-based
[2] = Antiproliferative activity against human KKU100 cells assessed as reduction in cell viability after 72 hrs by SRB assay; format: functional, cell-based; settings: KKU100, 72 h
[3] = tested on: HT-29; test: Antiproliferative activity against human HT-29 cells assessed as reduction in cell viability after 3 days by SRB assay; format: functional, cell-based; settings: HT-29, 72 h
[4] = tested on: NCI-H1650; test: Antiproliferative activity against human NCI-H1650 cells assessed as reduction in cell viability after 72 hrs by CellTiter-Glo assay; format: functional, cell-based; settings: NCI-H1650, 72 h
[5] = tested on: A549; test: Antiproliferative activity against human A549 cells assessed as reduction in cell viability after 48 hrs by MTT assay; format: functional, cell-based; settings: A549, 48 h
[6] = tested on: BGC-823; test: Antiproliferative activity against human BGC823 cells assessed as reduction in cell viability after 48 hrs by MTT assay; format: functional, cell-based; settings: BGC-823, 48 h
[7] = tested on: HT-3; test: Antiproliferative activity against human HT3 cells assessed as reduction in cell viability after 6 days by MTT assay; format: functional, cell-based; settings: HT-3, 144 h
[8] = target: Trypsin (Homo sapiens, UniProt P07477+P07478+P35030); test: Inhibition of trypsin (unknown origin) using Z-FR-MCA as substrate by spectrofluorimetric method; format: protein assay
[9] = target: Cruzipain (Trypanosoma cruzi, UniProt P25779); test: Inhibition of Trypanosoma cruzi cruzain (unknown origin) using Z-FR-MCA as substrate by spectrofluorimetric method
[10] = target: T1, Papain (Carica papaya, UniProt P00784); test: Inhibition of Papaya papain using Z-FR-MCA as substrate by spectrofluorimetric method
T1 sequence (P00784 whole entry): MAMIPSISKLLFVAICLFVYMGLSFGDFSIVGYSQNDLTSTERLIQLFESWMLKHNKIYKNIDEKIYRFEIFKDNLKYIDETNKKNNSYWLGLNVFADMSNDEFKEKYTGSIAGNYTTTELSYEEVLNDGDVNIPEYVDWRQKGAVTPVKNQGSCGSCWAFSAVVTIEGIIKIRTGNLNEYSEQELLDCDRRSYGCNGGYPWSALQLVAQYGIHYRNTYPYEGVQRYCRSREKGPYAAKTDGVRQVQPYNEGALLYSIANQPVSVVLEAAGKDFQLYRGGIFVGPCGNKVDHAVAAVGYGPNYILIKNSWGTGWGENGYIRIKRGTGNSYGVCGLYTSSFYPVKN

[11] = tested on: MCF7; test: Antiproliferative activity against human MCF7 assessed as reduction in cell viability incubated for 48 hrs by AlamarBlue assay; format: functional, cell-based; settings: MCF7, 48 h
[12] = tested on: HepG2; test: Antiproliferative activity against human HepG2 assessed as reduction in cell viability incubated for 48 hrs by AlamarBlue assay; format: functional, cell-based; settings: HepG2, 48 h
[13] = tested on: A549; test: Antiproliferative activity against human A549 cells assessed as reduction in cell viability after 72 hrs by MTT assay; format: functional, cell-based; settings: A549, 72 h
[14] = tested on: SNB-19; test: Antiproliferative activity against human SNB19 cells; format: functional, cell-based

Cruzipain, sequence (P25779 whole entry): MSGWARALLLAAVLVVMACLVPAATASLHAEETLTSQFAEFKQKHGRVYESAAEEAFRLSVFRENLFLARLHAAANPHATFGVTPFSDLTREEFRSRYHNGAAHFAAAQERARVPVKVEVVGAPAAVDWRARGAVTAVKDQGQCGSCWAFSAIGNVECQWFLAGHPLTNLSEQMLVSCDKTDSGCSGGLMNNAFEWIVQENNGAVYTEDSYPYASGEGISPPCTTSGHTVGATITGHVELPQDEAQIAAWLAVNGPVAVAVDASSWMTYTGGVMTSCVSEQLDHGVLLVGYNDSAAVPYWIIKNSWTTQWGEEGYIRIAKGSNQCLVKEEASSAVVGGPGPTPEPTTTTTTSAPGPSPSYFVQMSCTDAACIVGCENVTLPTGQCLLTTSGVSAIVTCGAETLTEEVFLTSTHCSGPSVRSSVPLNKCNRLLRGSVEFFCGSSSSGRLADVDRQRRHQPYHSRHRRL

## C=C1C(=O)O[C@@H]2/C=C(/C)C3=CC(=O)[C@@](C)(C[C@H](OC(=O)C(C)C)[C@@H]12)O3
[1]
  pIC50: 6.24

## CC(C)=CCc1c2c(c(O)c3c1O[C@]14C(=C[C@H]5C[C@@H]1C(C)(C)O[C@@]4(C/C=C(\C)C=O)C5=O)C3=O)C=CC(C)(C)O2
[2]
  pIC50: 5.48

## CC(C)=CCc1c(O)c(CC=C(C)C)c2c(c1O)C(=O)C1=C[C@H]3C[C@@H]4C(C)(C)O[C@@](C/C=C(/C)C(=O)O)(C3=O)[C@@]14O2
[3]
  pIC50: 5.49

## CC(C)=CCC[C@@]1(C)C=Cc2c(O)c3c(c(CCC(C)(C)O)c2O1)O[C@]12C(=C[C@H]4C[C@@H]1C(C)(C)O[C@@]2(C/C=C(/C)C(=O)O)C4=O)C3=O
[4]
  pIC50: 6.02

## C=C(C)C(=O)O[C@H]1C[C@@]2(C)OC(=CC2=O)[C@H](C)C(CC(=C)C(=O)O[C@H]2C[C@@]3(C)OC(=CC3=O)/C(C)=C\[C@H]3OC(=O)C(=C)[C@H]23)[C@H]2OC(=O)C(=C)[C@H]12 (stereo partly drawn)
[1]
  pIC50: 6.82

## CC(C)=CCC12OC(C)(C)C3CC(C=C4C(=O)c5c(O)cc(O)cc5OC431)C2=O (stereo not drawn)
[5]
  pIC50: 5.39
[6]
  pIC50: 5.23

## CC(C)=CCC/C(C)=C/Cc1c(O)c(CC=C(C)C)c2c(c1O)C(=O)C1=C[C@@H]3C[C@H]4C(C)(C)O[C@@](CC=C(C)C)(C3=O)[C@@]14O2
[4]
  pIC50: 5.96

## COc1ccc(-c2c3c(c(O)c4cc5c(cc24)OCO5)COC3=O)cc1OC
[7]
  IC50: > 10000 ng/mL

## CCCCCCCCCCCCCCCC(=O)OC[C@H]1O[C@@H](O[C@H]2CC[C@@]3(C)C(=CC[C@H]4[C@@H]5CC[C@H]([C@H](C)CC[C@@H](CC)C(C)C)[C@@]5(C)CC[C@@H]43)C2)[C@H](O)[C@@H](O)[C@@H]1O
[3]
  pIC50: < 5.00

## CCCC(=O)Oc1ccc(C2Oc3cc(OC(=O)CCC)cc(O)c3C(=O)C2c2c(OC(=O)CCC)cc(O)c3c(=O)cc(-c4ccc(OC(=O)CCC)c(OC(=O)CCC)c4)oc23)cc1 (racemic)
[8]
  IC50: 19.8 µM
[9]
  pIC50: 5.09
[10]
  pIC50: 4.80

## CC(C)=CCC/C(C)=C/Cc1c(O)c(CC=C(C)C)c2c(c1O)C(=O)C1=C[C@@H]3C[C@H]4C(C)(C)O[C@@](C/C=C(\C)C=O)(C3=O)[C@@]14O2
[4]
  pIC50: 6.01

## COCOc1cc2c(c(O)c1Br)C(=O)C1=CC3CC4C(C)(C)OC(C/C=C(\C)CO)(C3=O)C14O2 (stereo not drawn)
[5]
  pIC50: 6.25
[6]
  pIC50: 5.66

## O=C1c2c(O)cc(O)cc2OC(c2ccc(O)cc2)C1c1c(O)cc(O)c2c(=O)cc(-c3ccc(O)c(O)c3)oc12 (racemic)
[8]
  IC50: 3.8 µM
[9]
  pIC50: 5.02
[10]
  pIC50: 4.98

## C/C1=C\CC[C@@]2(C)O[C@H]2[C@H]2OC(=O)[C@@H](CNc3ccn(C4OC(CO)[C@H](O)[C@@H]4O)c(=O)n3)[C@@H]2CC1 (stereo partly drawn)
[11]
  pIC50: 5.28
[12]
  pIC50: 6.62

## COCOc1cc(O)c2c(c1)OC13C(=CC4CC1C(C)(C)OC3(CC1OC1(C)C)C4=O)C2=O (stereo not drawn)
[5]
  pIC50: 5.57
[6]
  pIC50: 6.51

## C=C(C)C(O)Cc1c2c(c(O)c3c1O[C@]14C(=C[C@H]5C[C@@H]1C(C)(C)O[C@@]4(C/C=C(\C)C(=O)O)C5=O)C3=O)C=CC(C)(C)O2 (stereo partly drawn)
[3]
  pIC50: 5.59

## C=C1C(=O)O[C@@H]2C3O[C@]3(C)CC/C=C(\C)CC[C@@H]12 (stereo partly drawn)
[12]
  pIC50: < 5.00

## COc1cc2c(OC)c3c(c(-c4ccc5c(c4)OCO5)c2cc1OC)C(=O)OC3 [JUSTICIDIN A]
[7]
  IC50: 1.8 ng/mL (≈ 4.56 nM)

## COCOc1cc(O)c2c(c1)OC13C(=CC4CC1C(C)(C)OC3(CC=C(C)C)C4=O)C2=O (stereo not drawn)
[5]
  pIC50: 5.48
[6]
  pIC50: 5.49

## CC(C)=CCc1c2c(c(O)c3c1O[C@]14C(=C[C@H]5C[C@@H]1C(C)(C)O[C@@]4(C/C=C(/C)C(=O)O)C5=O)C3=O)CC(O)C(C)(C)O2 (single isomer, unassigned; (-))
[3]
  pIC50: 5.54

## COC[C@H]1O[C@@H](Oc2c3c(c(-c4ccc5c(c4)OCO5)c4cc(OC)c(OC)cc24)C(=O)OC3)[C@H](OC)[C@@H](OC)[C@H]1OC
[13]
  pIC50: 8.00

## C=C1C(=O)O[C@@H]2C[C@@H](C)[C@H](OC)CC(=O)[C@](C)(O)C[C@H](OC(=O)/C(C)=C\C)[C@@H]12
[1]
  pIC50: 6.00

## C=C(C)[C@@]1(O)O[C@H]2C[C@@]3(C)OC(=CC3=O)/C(C)=C\[C@H]3OC(=O)[C@@]1(C)[C@@H]23
[1]
  pIC50: < 5.00
[14]
  pIC50: 4.00
